In publication PMC9561728, “Safety and efficacy of a GLP-1 and glucagon receptor dual agonist mazdutide (IBI362) 9 mg and 10 mg in Chinese adults with overweight or obesity: A randomised, placebo-controlled, multiple-ascending-dose phase 1b trial” (eClinicalMedicine, 2022):
Where two headings read alike, the source gives them in different places.

Assays:
Japanese and US subjects = conditions: single-dose (0.03, 0.1, 0.3, 1.0, 2.5, 5.0 mg) escalation, ref earlier single-dose studies quoted in protocol; cited from earlier work
mouse glucagon receptors = conditions: in vitro; cited from earlier work
Procedure: (§1) Mazdutide (also known as IBI362 or LY3305677) is a once-weekly mammalian oxyntomodulin analogue. […] In a phase 1b clinical trial in Chinese adults with overweight or obesity, mazdutide dosed up to 6 mg achieved 12-week mean body weight loss up to 6.4%.[11] Given the favourable safety profile and the robust body weight loss achieved in the low-dose cohort ...

mouse GLP-1 receptors = conditions: in vitro; cited from earlier work
Procedure: as §1

human GLP-1 receptors = conditions: in vitro; cited from earlier work
Procedure: as §1

human glucagon receptors = conditions: in vitro; cited from earlier work
Procedure: as §1

mice = conditions: cited from earlier work
Procedure: as §1

[1] = Solubility of the study drug; type: physicochemical; conditions: study protocol
Procedure: 5.2.1 Physical and chemical characteristi cs of the study drug
Molecular Weight: 4560.32 Daltons
Description: White to off-white powder
Solubility: Solvent: 20 mM Tris buffer at pH 8.0 and 150 mM sodium chloride.
Solubility: Not less than 10 mg/mL at 25 ℃.
5.2.2 Study Drug Strength and Manufacturer
The IB I362 dru g produ ct is IBI362 for injection an d consists of 2 mg IB I362 and the […]
contents are reconstituted with sterile water for injection to obtain a clear solution of […]
ingredients tris (hydroxymethyl) aminomethane, mannitol, and sucrose." The vial contents are reconstituted with sterile water for injection to obtain a clear solution devoid […]
The dru g product stren gt h used in this stud y was 2 mg/vial, and the placebo strengt h matched the drug product and was provided b y the Sponsor.
The drug product and placebo should be stored under refrigerated conditions (2 ℃ […]
5.2.4 Mode of administration
Both IBI362 and placebo will be administered by subcutaneous injection once a week. Each dose should be prepared and injected by the stud y nurse. See the Instructions for Use fo rdetails of the preparation and use of the study drug.
5.3.1 Prohibited Medications
The following m edicatio ns and measur es ar e cont raindicated:
1. Growth hormone and its analogues;
2. Any systemic corticosteroid (including intravenous, oral, intra-articular) administered for ≥ 7 da ys. […]

[2] = test system: Chinese adults with overweight or obesity; test: Treatment-emergent adverse events, phase 1b trial, 9 mg and 10 mg cohorts; conditions: n = 8
Procedure: (§3) The study included a 3-week screening period, a 12-week or 16-week treatment period and an 8-week safety follow-up period. During the treatment period, mazdutide or placebo was subcutaneously administered once weekly with one of the following dose-escalation regimens: 9 mg cohort (3 mg weeks 1-4; 6 mg weeks 5-8; 9 mg weeks 9-12) and 10 mg cohort (2.5 mg weeks 1-4; 5 mg weeks 5-8; 7.5 mg weeks 9-12; 10 mg weeks 13-16) (Figure S1). The escalation regimen in the 10 mg cohort provided relatively slower titration (2.5 mg every 4 weeks) to the target dose of 10 mg, and the escalation regimen in the 9 mg cohort adopted faster titration (3 mg every 4 week). Participants were required to maintain the original diet, exercise and lifestyle during the trial.
(§4) The primary outcomes were safety and tolerability of mazdutide. […] The severity of the TEAEs (mild, moderate or severe) and the association between an event and the study drug was assessed by investigators based on pre-specified criteria.
(§5) Safety analyses were done in the safety population (defined as all participants who received at least one dose of the study treatment).

[3] = test system: Chinese adults with overweight or obesity; conditions: in vivo
Procedure: as §3, §4, §5

[4] = Non-compartmental plasma pharmacokinetics, phase 1b trial; type: in vivo; conditions: human; for AUC(0-t) / Cmax: geometric mean (CV%); for AUC(0-t): n = 8, read-out: AUC0-168h; for Tmax: median (range); for Tmax / Cmax: n = 8; for Cmax: non-compartmental
Source text: 6.3 PK/ PD assessment vari ables
6.3.1 PK Sample Collection
PK sampling will be performed according to the Schedule of Visits (Table 2, Table 4, Table 6), PK/PD Sampling Schedule (Table 3- 1, Table 3- 2, Table 5-1, Table 5- 2, Table 7-1, Table 7- 2), and ex aminations will be performed at a central laborator y. 3 m L of whole blood was collected into a […] vacutainer, plasma was separated, aliquoted and stored frozen for PK analysis of IBI362. Details of sampling methods, sample storage, transportation and analysis were provided in the Laboratory Manual provided by the central laboratory designated by the sponsor. […]
• Pharmacokinetic parameters, including but not limited to Tmax, Cmax, product under the concentration- time curve (AUC), volum e of distribution (Vd), half-life (T1/2), clearan ce (C L) an d accumulation co efficient (AR); […]

[5] = test system: Chinese adults with overweight or obesity; test: Vital signs and laboratory safety (heart rate, blood pressure, lipase, transaminases), phase 1b trial; type: in vivo, human; conditions: for Mean change from baseline in heart rate (maximum): placebo 4.3
Source text: The primary outcomes were safety and tolerability of mazdutide.
(§2) Summaries for other efficacy and safety variables included descriptive statistics for continuous measures (mean and standard deviation or standard error) and for categorical measures (sample size, frequency and percentages).

[6] = test system: Chinese adults with overweight or obesity; test: HbA1c and metabolic parameters, phase 1b trial; type: in vivo, human; conditions: 9 mg cohort, week 12, participants without type 2 diabetes
Procedure: Secondary outcomes included pharmacokinetics, assessed by maximum observed plasma concentration (Cmax), time at which Cmax was observed (Tmax), terminal elimination half-life (t½), and area under the curve from time zero to 168 h after the first dose (AUC0–168 h) and immunogenicity, assessed by titters of anti-drug antibodies (ADAs) and neutralizing antibodies. Secondary efficacy outcomes included the change from baseline to week 12 (9 mg cohort) or week 16 (10 mg cohort) in body weight, waist circumference, BMI, as well as the change from baseline in HbA1c, lipids, transaminase and serum uric acid levels.
as §2

[7] = 9 mg cohort (sc QW 3/6/9 mg, 4 wk each)
[8] = 10 mg cohort (sc QW 2.5/5/7.5/10 mg, 4 wk each)

In the case of `CC(C)C[C@H](NC(=O)[C@H](CC(C)C)NC(=O)[C@H](Cc1c[nH]c2ccccc12)NC(=O)[C@H](CCC(=O)O)NC(=O)[C@@H](NC(=O)[C@H](Cc1ccccc1)NC(=O)[C@H](CCC(=O)O)NC(=O)[C@H](CCCCNC(=O)COCCOCCNC(=O)COCCOCCNC(=O)CC[C@H](NC(=O)CCCCCCCCCCCCCCCCCCC(=O)O)C(=O)O)NC(=O)[C@H](C)NC(=O)[C@H](CCCCN)NC(=O)[C@H](CCCCN)NC(=O)[C@H](CCC(=O)O)NC(=O)[C@H](CC(=O)O)NC(=O)[C@H](CC(C)C)NC(=O)[C@H](Cc1ccc(O)cc1)NC(=O)[C@H](CCCCN)NC(=O)[C@H](CO)NC(=O)[C@H](Cc1ccc(O)cc1)NC(=O)[C@H](CC(=O)O)NC(=O)[C@H](CO)NC(=O)[C@@H](NC(=O)[C@H](Cc1ccccc1)NC(=O)[C@@H](NC(=O)CNC(=O)[C@H](CCC(N)=O)NC(=O)C(C)(C)NC(=O)[C@@H](N)Cc1c[nH]cn1)[C@@H](C)O)[C@@H](C)O)C(C)C)C(=O)N[C@@H](CCC(=O)O)C(=O)NCC(=O)NCC(=O)N1CCC[C@H]1C(=O)N[C@@H](CO)C(=O)N[C@@H](CO)C(=O)NCC(N)=O` [Mazdutide], the “maximum tolerated dose (MTD) of single-dose study” value (Japanese and US subjects) is given as 2.5 mg, the “Binding to mouse glucagon receptors” value (mouse glucagon receptors) is given as “potently bound” and the “Binding to mouse GLP-1 receptors” value (mouse GLP-1 receptors) is given as “potently bound”. For the same molecule, the “Binding to human GLP-1 receptors” value (human GLP-1 receptors) was “potently bound”, the “Binding to human glucagon receptors” value (human glucagon receptors) was “potently bound” and the Body weight (mice; both Gcgr knockout (KO) and Glp1r KO settings) was “decreased body weight”. For the same molecule, the Energy expenditure (mice) was “increased energy expenditure”, the Glucose control (mice) was “improved glucose control” and the Solubility ([1]; 20 mM Tris buffer at pH 8.0 and 150 mM sodium chloride, 25 ℃) was “Not less than 10 mg/mL”. For the same molecule, the “Solubility Description” value [1] was “Sparingly or slightly soluble”, the “TEAE: Infections and infestations (system organ class)” value [2, 7] was 6 (75.0) n (%) and the “TEAE: Upper respiratory tract infection” value [2, 7] was 3 (37.5) n (%). The “TEAE: Urinary tract infection” value [2, 7] was 4 (50) n (%), the “TEAE: Infections and infestations (system organ class)” value [2, 8] was 5 (62.5) n (%) and the “TEAE: Upper respiratory tract infection” value [2, 8] was 4 (50) n (%). For the same molecule, the “TEAE: Urinary tract infection” value [2, 8] was 2 (25) n (%), the “Participants with treatment-emergent adverse events” value [3] was 100% and the “Severity of treatment-emergent adverse events” value [3] was “all mild or moderate in severity”. It also gave an AUC(0-t) ([4]; after first sc dose 2.5 mg) of 21800 ng·h/mL, a Tmax ([4]; after first sc dose 2.5 mg) of 72.3 h and a Cmax ([4]; after first sc dose 2.5 mg) of 179 ng/mL. For the same molecule, the AUC(0-t) ([4]; after first sc dose 3 mg) was 31400 ng·h/mL, the Tmax ([4]; after first sc dose 3 mg) was 72.4 h and the Cmax ([4]; after first sc dose 3 mg) was 226 ng/mL. The “Mean change from baseline in heart rate (maximum)” value ([5]; 9 mg cohort) was “up to 17.4 beats per minute”, the “Lipase level in one participant at week 16” value ([5]; 10 mg cohort, 153 U/L at baseline, upper limit of normal 300 U/L, returned to normal at safety follow-up) was 739 U/L and the “Mean change from baseline in heart rate (maximum)” value ([5]; 10 mg cohort) was ≤ 11.6 beats per minute. For the same molecule, the “Transaminase elevation in the two participants with ALT/AST increased” value ([5]; one participant in 9 mg cohort, one in 10 mg cohort) was “mild (within three times upper limit of normal) and transient”, the “Participants with a 0.4% HbA1c reduction from baseline” value [6] was “three” and the “Participants with a 0.8% HbA1c reduction from baseline” value [6] was “two”.
